Here are results for 1 compound from patent publication US8158165B2, “Preventative treatment and remission of allergic diseases” (CSIR, priority 2006, dated 2012).

The target in experiment [1] is T1, human glucocorticoid receptors (Homo sapiens, UniProt P04150).
T1 construct: endogenous in cells; host or cells: HeLa S3 (human cervix carcinoma) cells
T1 sequence (P04150 1-777): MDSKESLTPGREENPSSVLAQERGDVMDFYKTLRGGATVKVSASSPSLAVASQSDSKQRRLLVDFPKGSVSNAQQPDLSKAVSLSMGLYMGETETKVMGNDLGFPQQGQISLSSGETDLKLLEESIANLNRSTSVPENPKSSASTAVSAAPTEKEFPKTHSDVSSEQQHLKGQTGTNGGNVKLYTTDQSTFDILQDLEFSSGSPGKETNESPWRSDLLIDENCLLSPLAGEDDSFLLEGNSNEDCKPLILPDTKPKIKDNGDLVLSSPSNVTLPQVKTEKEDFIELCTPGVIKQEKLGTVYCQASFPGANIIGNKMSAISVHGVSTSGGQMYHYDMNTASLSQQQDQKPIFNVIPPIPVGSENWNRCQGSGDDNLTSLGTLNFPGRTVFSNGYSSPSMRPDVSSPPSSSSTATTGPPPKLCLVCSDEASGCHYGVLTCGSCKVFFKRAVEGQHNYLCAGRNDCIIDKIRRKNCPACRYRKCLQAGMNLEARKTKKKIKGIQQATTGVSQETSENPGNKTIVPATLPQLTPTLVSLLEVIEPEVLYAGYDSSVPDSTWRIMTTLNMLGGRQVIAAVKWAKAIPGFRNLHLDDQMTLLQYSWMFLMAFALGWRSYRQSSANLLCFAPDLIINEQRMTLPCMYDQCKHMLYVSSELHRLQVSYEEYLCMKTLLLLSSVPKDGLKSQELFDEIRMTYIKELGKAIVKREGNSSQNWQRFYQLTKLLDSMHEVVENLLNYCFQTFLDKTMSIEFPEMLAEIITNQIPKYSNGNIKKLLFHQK
Kind of experiment: glucocorticoid receptor (GR) binding assay, [3H]Dexamethasone, HeLa S3 cells. The text has this:
Biochemical assay results as presented herein are reflected as the percent inhibition of specific binding or activity of a compound. The assay is described in Cidlowski, J. A. and Cidlowski, N. B., Regulation of glucocorticoid receptors by glucocorticoids in cultured HeLa S3 cells. Endocrinology 109: 1975-1982, 1981, the contents of which are incorporated herein by way of reference. This assay specifically measures the ability of active glucocorticoids in glucocorticoid receptor downregulation.
This assay measures binding of [^3H]Dexamethasone to human glucocorticoid receptors. HeLa S3 cells are suspended in modified HEPES buffer, pH 7.2, using standard techniques.
The cells (1×10^6) are incubated with 6 nM [^3H]Dexamethasone for 120 minutes at 25° C. Non-specific binding is estimated in the presence of 20 μM Dexamethasone. Membranes are filtered and washed three times and the filters are counted to determine [^3H]Dexamethasone specifically bound. Compounds are screened at 10 μM for activity.

The subject of the next experiment is Phosphodiesterase PDE4. Kind of experiment: phosphodiesterase PDE4 enzyme assay. It is filed as biochemical, human. As to conditions: 100 μg/ml. On the procedure:
Based on the results shown in Table 6, it follows that the combined fraction (WG-I-5AB+WG-I-5C) is effective in binding to the glucocorticoid receptor (GR) site. […] This inhibitory effect implies that the combined fraction (WG-I-5AB+WG-I-5C) has a bronchodilatory effect. For the PDE4 test, PDE4 which has been partially purified from human U-937 pronocytic cells is used. The test compound and/or vehicle is incubated with 0.2 μg enzyme and 1 μM cAMP containing 0.01 μM [^3H]cAMP in Tris buffer pH 7.5 for 20 minutes at 30° C. The reaction is terminated by boiling for 2 minutes and the resulting AMP is converted to adenosine by addition of 10 mg/ml snake venom necleotidase and further incubation at 30° C. for 10 minutes. Unhydrolyzed cAMP is bound to AGI-X2 resin, and remaining [^3H]adenosine in the aqueous phase is quantified by scintillation counting. Compounds are screened at 100 μM. IBMX (3-isobutyl-1-methylxanthine) is used as standard reference agent.

For a further experiment, the system named is Lipoxygenase 5-LO. The experiment in a line: 5-lipoxygenase enzyme assay (5-LO). It is filed as biochemical, human. Conditions: 100 μg/ml. On the procedure: For the 5-LO test a crude 5-lipoxygenase enzyme preparation from rat basophilic leukemia cells (RBL-1) is used. The test compound is pre-incubated with the enzyme for 5 minutes in Tris buffer pH 7.2 at room temperature. The reaction is initiated by addition of 15 μM arachidonic acid as substrate and run for an additional 8 minutes after which the reaction is terminated by addition of 70 mM citric acid and levels of 5-HETE are determined by radioimmune assay. […] NDGA (nordihydroguaretic acid) is used as standard reference agent.

The subject of the next experiment is IL-5. Kind of experiment: Mediator Release, IL-5 (ConA-stimulated PBMNL cells). It is filed as cell-based, human. As to the method: As regards the human IL-5 mediator release text, the test compound is incubated with Concanavalin A (ConA) (10 μg/ml)-stimulated human peripheral blood mononuclear leukocyte (PBMNL) cells in growth medium RPMI-1640 (pH 7.4) overnight at 37° C. in an incubator. The IL-5 cytokine production levels in the conditioned medium are quantified using a sandwich ELISA kit. […] These same concentrations are concurrently applied to a separate group of treated cells and evaluated for possible compound-induced cytotoxicity only if significant inhibition of release is observed. Dexamethasone is used as standard reference agent.

The subject of experiment [2] is NF-κB transcription factor. Kind of experiment: Transcription Response, NF-κB (Jurkat lacZ reporter). It is filed as cell-based, human. The source says: The assay is described in Lenardo M J, Baltimaore D. Lenardo M J, Baltimaore D, NF-κB: A pleiotropic mediator of inducible and tissue specific gene control. Cell. 58: 227-229, 1989, the contents of which are incorporated herein by way of reference.
Human T lymphocytic Jurkat cells, transfected with a response element-lacZ reporter in which transcription of the β-galactosidase gene is directed by the binding site for the NF-κB transcription factor, are used. Test compound and/or vehicle are incubated with the cells (1.5×10^6/ml) in the presence of 0.5 μM A23187 and 50 ng/ml PMA (phorbol 12-myristate 13-acetate) in RPMI-1640 pH 7.4 at 37° C. for 4 hours. Test compound-induced β-galactosidase activity is determined by the conversion of FDG (fluorescein di-β-D-galactopyranoside) to fluorescein. Fluorescence intensity is read on SpectroFluor Plus plate reader. […]

SMILES strings stand for the structures. Values after ≈ are worked out from the molar mass of the structure shown.

In the case of `Cc1coc2c1C[C@H]1[C@H](C)C=CC(=O)[C@]1(C)C2` (relative stereo) [compound 1, 4,4a,5,9-tetrahydro-3,5,8a-trimethylnaptho[2,3-b]furan-8-one], the IC50 in experiment [1] worked out at 50.3 µM; in the experiment on IL-5 (Homo sapiens, as worded, read-out: IC50 mediator release Interleukin-5 (IL-5) inhibition assay) it was 16.1 µM; in experiment [2] (Homo sapiens, Jurkat, read-out: IC50 inhibition of NF-κB transcription factor), 15.6 µg/mL (≈ 67.7 µM). For the same compound, in experiment [1], the Ki is 22.8 µM. The inhibition at 100 µM in experiment [1] (100 μM) was determined as 70%. For the same compound, the inhibition at 100 µg/mL in experiment [1] (100 μg/ml) is 104%. Moreover, the “nH Glucocorticoid” value in experiment [1] (Hill coefficient) amounted to 1.4. The “Inhibition (%) Phosphodiesterase PDE4” value in the experiment with Phosphodiesterase PDE4 is 35%. In addition, the “Inhibition (%) Lipoxygenase 5-LO” value in the experiment on Lipoxygenase 5-LO is listed as 99%. The “ANT. Mediator Release, IL-5” value in the experiment with IL-5 (10 nM) is recorded as 17%; with IL-5 (0.1 μM) it was 18%; in the experiment on IL-5 (1 μM) it was 25%; in the experiment with IL-5 (10 μM), 36%; in the experiment with IL-5 (100 μM), 93%; in the experiment on IL-5 (100 μg/ml (Table 13)) it was 93%. The compound further showed an EC50 in the experiment with IL-5 (Homo sapiens) of 16.1 µM. Further, the “% RESPONSE Ant, Transcription Response, NF-κB” value is reported as 0% in experiment [2] (0.1 μM); 7% in experiment [2] (1 μM); 27% in experiment [2] (10 μM); 5% in experiment [2] (10 μM, fifth (last) step of the series); 113% in experiment [2] (100 μM); more than 100% in experiment [2] (100 μM, listed as compound of formula 1).
